{"source": "paper PMC5760651", "about": "“Peptidomimetic blockade of MYB in acute myeloid leukemia” (Nature Communications, 2018)", "key": {"MV-411 cells": {"test_system": "MV-411 cells", "test": "MYB ChIP-seq", "type": "cell-based, human", "conditions": "20 µM, 6 h, 3 biological replicates", "description": "ChIP was performed as previously described. Briefly, cells were fixed in 1% formalin in phosphate-buffered saline (PBS) for 10 minutes at room temperature. Glycine (125 mM final concentration) and Tris-HCl pH 8 (100 mM final concentration) were added to the cells and cells were washed twice in ice-cold PBS and resuspended in sodium dodecyl sulfate (SDS) lysis buffer (1% SDS, 10 mM EDTA, 50 mM Tris–HCl, pH 8.1). Lysates were sonicated using the Covaris S220 adaptive focused sonicator to obtain 100–500 bp chromatin fragments (Covaris, Woburn, CA). Lysates containing sheared chromatin fragments were resuspended in 0.01% SDS, 1.1% Triton-X100, 1.2 mM EDTA, 16.7 mM Tris–HCl, pH 8.1,167 mM NaCl. Lysates and antibody-coupled beads were incubated over night at 4 °C. […] Libraries were sequenced on the Illumina HiSeq 2500 instruments, with 30 million 2 × 50 bp paired reads.\nFor ChIP-seq analysis, reads were quality and adapter trimmed using ‘trim_galore’ before aligning to human genome assembly hg19 with bwa mem using the default parameters. Aligned reads with the same start position and orientation were collapsed to a single read before subsequent analysis. Density profiles were created by extending each read to the average library fragment size and then computing density using the BEDTools suite. Enriched regions were discovered using MACS 2.0 and scored against matched input libraries. […]"}, "MYB:CBP/P300 complex": {"test_system": "MYB:CBP/P300 complex", "test": "Co-immunoprecipitation of MYB:CBP/P300 complex from MV-411 cells", "type": "binding, human", "conditions": "20 μM, immunoprecipitation with anti-MYB, 3 h, 4 °C, western blot", "description": "Cells were lysed in RIPA buffer (Thermo Fisher) supplemented with a protease inhibitor mix comprised of AEBSF (0.5 mM concentration, Santa Cruz, SC-202041B), Bestatin (0.01 mM, Fisher/Alfa Aesar, J61106-MD), Leupeptin (0.1 mM, Santa Cruz, SC-295358B), and Pepstatin (0.001 mM, Santa Cruz, SC-45036A). Lysates were mechanically disrupted using Covaris S220 adaptive focused sonicator, according to the manufacturer’s instructions (Covaris, Woburn, CA). Lysates were cleared by centrifugation for 15 min at 18,000 × g and clarified lysates were quantified using the bicinchoninic acid assay (Pierce). Clarified lysates (20 μg of protein) were resolved using sodium dodecyl sulfate-polyacrylamide gel electrophoresis, and electroeluted using the Immobilon FL PVDF membranes (Millipore, Billerica, MA, USA). Membranes were blocked using the Odyssey Blocking buffer (Li-Cor, Lincoln, Nebraska, USA). The following primary antibodies were used as indicated: anti-MYB (1:1000, 05-175, Millipore), anti-CBP (1:1000, PA1-847, Invitrogen), anti-BCL2 (1:1000, 200-401-222, Rockland), anti-β actin (1:1000, 8H10D10, Cell Signaling). […] Blotted membranes were visualized using secondary antibodies conjugated to IRDye 800CW or IRDye 680RD (Goat anti-rabbit, 1:15,000, and goat anti-mouse, 1:15,000) and the Odyssey CLx fluorescence scanner, according to manufacturer’s instructions (Li-Cor, Lincoln, Nebraska, USA). […]"}}, "note": "Non-standard residues stand in square brackets, D forms with d. Residues, ends and D or L forms follow the SMILES beside them.", "data": [{"smiles": "CC[C@@H](C)[C@@H](NC(=O)[C@@H](CCCCN)NC(=O)[C@@H](CCC(=O)O)NC(=O)[C@@H](CC(C)C)NC(=O)[C@@H](CCC(=O)O)NC(=O)[C@@H](CC(C)C)NC(=O)[C@@H](CC(C)C)NC(=O)[C@@H](CC(C)C)NC(=O)[C@@H](CCSC)NC(=O)[C@@H](CO)NC(=O)[C@H](NC(=O)[C@@H](CCC(=O)O)NC(=O)[C@@H](CC(N)=O)NC(=O)[C@@H](CCC(=O)O)NC(=O)[C@@H](CC(C)C)NC(=O)[C@@H](CCCCN)NC(C)=O)[C@H](C)O)C(=O)N[C@H](CCCNC(=N)N)C(=O)N[C@H](CCCCN)C(=O)NCC(=O)NCC(=O)N[C@H](CCCNC(=N)N)C(=O)N[C@H](CCCNC(=N)N)C(=O)N[C@H](CCCNC(=N)N)C(=O)N[C@H](CCC(N)=O)C(=O)N[C@H](CCCNC(=N)N)C(=O)N[C@H](CCCNC(=N)N)C(=O)N[C@H](CCCCN)C(=O)N[C@H](CCCCN)C(=O)N[C@H](CCCNC(=N)N)C(=O)NCC(=O)N[C@H](Cc1ccc(O)cc1)C(N)=O", "note": "[MYBMIM] (Ac-[dK][dL][dE][dN][dE][dT][dS][dM][dL][dL][dL][dE][dL][dE][dK][dI][dR][dK]GG[dR][dR][dR][dQ][dR][dR][dK][dK][dR]G[dY]-NH2)", "values": [{"measurement": "MYB complexes bound to promoters and enhancers eliminated", "setting": "MV-411 cells", "value": "2,690"}, {"measurement": "Dissociation of the cellular MYB:CBP/P300 complex", "setting": "MYB:CBP/P300 complex", "value": "significant dissociation"}]}]}
